Results published in paper PMC9841524, “Structure-Based Rational Design of Small α-Helical Peptides with Broad-Spectrum Activity against Multidrug-Resistant Pathogens” (Journal of Medicinal Chemistry, 2022).
Read-outs that look alike come from different tables or passages of the source. Where no end group is shown, it is not given here.

Assays:
[1] = system: P. aeruginosa (ATCC 27883); test: MIC, standard microtiter dilution (CLSI); type: cell-based, Pseudomonas aeruginosa; conditions: broth microdilution (CLSI), CAMHB, 37 °C, 24 h
Protocol: (§1) Description of the characteristics and growth conditions of various bacterial strains used in the study are provided in the Supporting Information (Table S3). Antibacterial susceptibility testing was carried out using a standard microtiter dilution method recommended by the clinical and laboratory standard institute (CLSI) and measured as a minimum inhibitory concentration (MIC), the lowest peptide concentration that inhibited bacterial growth. Briefly, the overnight grown cultures in the recommended broth for each bacterial strain were diluted in cation-adjusted Mueller Hinton Broth (CAMHB) to give an inoculum of 10^6 colony-forming units (CFU)/mL. A 2-fold serially diluted test peptide solution (100 μL) was added to the microtiter plates. After adding bacterial suspension (100 μL), the plates were incubated at 37 °C for 24 h, and the MICs were determined. The same protocol was used to determine the MICs in the presence of salts and serum except using the media supplemented with various cationic salts (150 mM NaCl, 4.5 mM KCl, 6 mM NH4Cl, 1 mM MgCl2, and 2 mM CaCl2) or 25% FBS. The data was acquired from three independent assays performed in triplicate.
(§2) The bacterial strains employed in this study were obtained from the American Type Culture Collection (ATCC). Each strain was propagated as recommended by the ATCC, and each strain was stored as a frozen glycerol stock at -80°C. A bacterial colony was grown on the appropriate agar as indicated in Table S1 and was used to inoculate the appropriate broth. The culture was incubated at the appropriate conditions, as mentioned in Table S1. Following the incubation, the culture was diluted to an optical density 625 nm (OD625) of 0.1 in cation adjusted Mueller Hinton Broth (CAMHB), which is equivalent to 1 × 10^8 CFU/mL. The culture was further diluted to 1 × 10^6 CFU/mL, which was used to conduct the MIC determination assay. For the S. pneumoniae strains, CAMHB + 2.5% lysed horse blood was required for the assay. The strains with their […]
(§3) Table S3. Description of the characteristics and growth conditions of various bacterial strains

[2] = system: K. pneumoniae (ATCCBAA-1705); test: MIC, standard microtiter dilution (CLSI); type: cell-based, Klebsiella pneumoniae; conditions: broth microdilution (CLSI), CAMHB, 37 °C, 24 h
Protocol: as §1, §2, §3

E. coli (ATCC 25922) = conditions: broth microdilution (CLSI), CAMHB, 37 °C, 24 h
Protocol: as §1, §2, §3

MRSA (ATCC BAA-1556) = conditions: broth microdilution (CLSI), CAMHB, 37 °C, 24 h
Protocol: as §1, §2, §3

S. aureus (ATCC 29213) = test: MIC, standard microtiter dilution (CLSI); type: cell-based; conditions: for MIC, S. aureus (ATCC 29213): broth microdilution (CLSI), CAMHB, 37 °C, 24 h
Protocol: as §1, §2, §3

[3] = system: human red blood cells (hRBCs); test: Hemolytic assay; type: cell-based; conditions: 2 h, 37 °C
Protocol: The hemolytic activity of all peptides (1a–8d) was determined using hRBC. The assay was conducted by adding 75 μL of 2-fold serially diluted peptides to 75 μL of hRBC suspension (4% in PBS). The plates were incubated for 2 h at 37 °C without agitation. In order to determine the hemolysis at each tested concentration of peptides, the plate was centrifuged, and 100 μL of the supernatant was transferred to another 96-well plate to determine hemoglobin release spectrophotometrically at 567 nm. Percent hemolysis was calculated by the following formula [drawing 1] where A represents the absorbance of the peptide sample at 567 nm and A0 and At represent zero percent and 100% hemolysis determined in phosphate buffer saline and 1% Triton X-100, respectively.

[4] = 10^6 CFU/mL, highest MIC of three independent experiments in triplicate
[5] = hRBC suspension 4% in PBS, hemoglobin release at 567 nm, 1% Triton X-100 = 100%
[6] = value in parentheses (μM), hRBC 4% in PBS, 567 nm

| Substance | MIC, P. aeruginosa (ATCC 27883) [1, 4] | MIC, P. aeruginosa (ATCC 27883) ([1]; value in parentheses (μM)) | MIC, K. pneumoniae (ATCCBAA-1705) [2, 4] | MIC, K. pneumoniae (ATCCBAA-1705) ([2]; value in parentheses (μM)) | MIC, E. coli (ATCC 25922) (E. coli (ATCC 25922); [4]) | MIC, E. coli (ATCC 25922) (E. coli (ATCC 25922); value in parentheses (μM)) | MIC, MRSA (ATCC BAA-1556) (MRSA (ATCC BAA-1556); [4]) | MIC, MRSA (ATCC BAA-1556) (MRSA (ATCC BAA-1556); value in parentheses (μM)) | MIC, S. aureus (ATCC 29213) (S. aureus (ATCC 29213); [4]) | MIC, S. aureus (ATCC 29213) (S. aureus (ATCC 29213); value in parentheses (μM)) | HC50 (concentration at which 50% hemolysis was observed) [3, 5] | HC50 (concentration at which 50% hemolysis was observed) [3, 6] | MIC against S. aureus (S. aureus (ATCC 29213)) |
| --- | --- | --- | --- | --- | --- | --- | --- | --- | --- | --- | --- | --- | --- |
| RRWWRRW-NH2 [1b] | > 100 µg/mL | > 83.30 µM | > 100 µg/mL | > 83.30 µM | > 100 µg/mL | > 83.30 µM | 100 µg/mL | 83.30 µM | 50 µg/mL | 41.65 µM | > 500 µg/mL | > 416.52 µM | – |
| RWARRAWRAW-NH2 [4e] | > 100 µg/mL | > 70.74 µM | > 100 µg/mL | > 70.74 µM | > 100 µg/mL | > 70.74 µM | > 100 µg/mL | > 70.74 µM | > 100 µg/mL | > 70.74 µM | > 500 µg/mL | > 353.69 µM | – |
| RWARRWARWWR-NH2 [5b] | 100 µg/mL | 59.35 µM | > 100 µg/mL | > 59.35 µM | 100 µg/mL | 59.35 µM | 100 µg/mL | 59.35 µM | 50 µg/mL | 29.67 µM | > 500 µg/mL | > 296.74 µM | 50 µg/mL |
| RWARRWWR-NH2 [2c] | > 100 µg/mL | > 78.65 µM | > 100 µg/mL | > 78.65 µM | > 100 µg/mL | > 78.65 µM | > 100 µg/mL | > 78.65 µM | > 100 µg/mL | > 78.65 µM | > 500 µg/mL | > 393.23 µM | – |
| RWARRWWRA-NH2 [3c] | > 100 µg/mL | > 74.48 µM | > 100 µg/mL | > 74.48 µM | > 100 µg/mL | > 74.48 µM | > 100 µg/mL | > 74.48 µM | > 100 µg/mL | > 74.48 µM | > 500 µg/mL | > 372.42 µM | – |
| RWIRRWIRWWR-NH2 [5c] | 50 µg/mL | 28.26 µM | 100 µg/mL | 56.52 µM | 100 µg/mL | 56.52 µM | 50 µg/mL | 28.26 µM | 50 µg/mL | 28.26 µM | > 500 µg/mL | > 282.62 µM | – |
| RWRRWWR-NH2 [1a] | > 100 µg/mL | > 83.30 µM | > 100 µg/mL | > 83.30 µM | > 100 µg/mL | > 83.30 µM | 100 µg/mL | 83.30 µM | 100 µg/mL | 83.30 µM | > 500 µg/mL | > 416.52 µM | – |
| RWWRAAWRR-NH2 [3d] | > 100 µg/mL | > 74.48 µM | > 100 µg/mL | > 74.48 µM | > 100 µg/mL | > 74.48 µM | > 100 µg/mL | > 74.48 µM | > 100 µg/mL | > 74.48 µM | > 500 µg/mL | > 372.42 µM | – |
| RWWRRAWR-NH2 [2b] | > 100 µg/mL | > 78.65 µM | > 100 µg/mL | > 78.65 µM | > 100 µg/mL | > 78.65 µM | > 100 µg/mL | > 78.65 µM | > 100 µg/mL | > 78.65 µM | > 500 µg/mL | > 393.23 µM | – |
| RWWRRAWRA-NH2 [3a] | > 100 µg/mL | > 74.48 µM | > 100 µg/mL | > 74.48 µM | > 100 µg/mL | > 74.48 µM | > 100 µg/mL | > 74.48 µM | > 100 µg/mL | > 74.48 µM | > 500 µg/mL | > 372.42 µM | – |
| RWWRRAWRAA-NH2 [4c] | > 100 µg/mL | > 70.74 µM | > 100 µg/mL | > 70.74 µM | > 100 µg/mL | > 70.74 µM | > 100 µg/mL | > 70.74 µM | > 100 µg/mL | > 70.74 µM | > 500 µg/mL | > 353.69 µM | – |
| WRRWARRW-NH2 [2d] | > 100 µg/mL | > 78.65 µM | > 100 µg/mL | > 78.65 µM | > 100 µg/mL | > 78.65 µM | > 100 µg/mL | > 78.65 µM | > 100 µg/mL | > 78.65 µM | > 500 µg/mL | > 393.23 µM | – |
